Active and inactive are the calls of the source.
How the values were obtained:
[1] = reduced cellular PGC1a acetyl-lysine signal – cell-based, cherry-picked samples, dose response (AID 720514); type: functional;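 further: potency may reflect raised or lowered acetylation signal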
[2] = target: T1, Eukaryotic translation initiation factor 2-alpha kinase 3 (Homo sapiens, UniProt Q9NZJ5); test: Dose response cell-based high-throughput screening assay to measure PERK inhibition. [Related pubchem assays: 1416 ]; type: functional
T1 sequence (Q9NZJ5 whole entry): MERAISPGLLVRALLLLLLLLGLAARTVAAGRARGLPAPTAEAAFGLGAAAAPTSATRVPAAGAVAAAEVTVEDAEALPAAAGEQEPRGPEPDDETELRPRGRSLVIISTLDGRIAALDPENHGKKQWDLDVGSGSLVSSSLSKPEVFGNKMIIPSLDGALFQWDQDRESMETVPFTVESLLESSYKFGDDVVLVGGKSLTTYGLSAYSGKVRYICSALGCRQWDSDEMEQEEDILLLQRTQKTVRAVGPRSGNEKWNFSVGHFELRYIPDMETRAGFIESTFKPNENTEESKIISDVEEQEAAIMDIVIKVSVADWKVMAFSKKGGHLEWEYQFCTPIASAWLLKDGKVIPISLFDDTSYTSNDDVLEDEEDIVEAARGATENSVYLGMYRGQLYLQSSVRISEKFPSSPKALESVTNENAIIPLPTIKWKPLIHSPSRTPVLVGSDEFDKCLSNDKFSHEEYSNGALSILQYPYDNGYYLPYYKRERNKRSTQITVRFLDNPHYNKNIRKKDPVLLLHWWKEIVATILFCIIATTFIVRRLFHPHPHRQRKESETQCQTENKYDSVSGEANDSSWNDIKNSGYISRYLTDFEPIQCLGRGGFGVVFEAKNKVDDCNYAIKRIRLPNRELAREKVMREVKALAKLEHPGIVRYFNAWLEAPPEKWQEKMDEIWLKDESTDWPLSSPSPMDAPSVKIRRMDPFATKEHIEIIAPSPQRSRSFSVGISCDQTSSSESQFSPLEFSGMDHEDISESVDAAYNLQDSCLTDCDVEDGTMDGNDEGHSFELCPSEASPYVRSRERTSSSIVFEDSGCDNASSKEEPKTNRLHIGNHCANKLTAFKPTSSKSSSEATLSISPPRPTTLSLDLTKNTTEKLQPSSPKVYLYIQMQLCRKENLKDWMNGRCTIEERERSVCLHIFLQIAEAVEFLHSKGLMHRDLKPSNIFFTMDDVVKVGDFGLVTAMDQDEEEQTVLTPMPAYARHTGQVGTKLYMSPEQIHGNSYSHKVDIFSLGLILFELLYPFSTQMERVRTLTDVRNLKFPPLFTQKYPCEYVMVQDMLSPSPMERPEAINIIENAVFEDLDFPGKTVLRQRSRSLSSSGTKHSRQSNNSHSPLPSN

[3] = target: T1, Eukaryotic translation initiation factor 2-alpha kinase 3; test: Counterscreen assay for PERK inhibitors: Dose response cell-based high throughput screening assay to measure inhibition of PERK at 6 hours. [Related pubchem assays: 1522, 1416 ]; type: functional
NADPH oxidase 1 = target: T2, NADPH oxidase 1 (Homo sapiens, UniProt Q9Y5S8); type: functional, cell-based;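 further: Cell-based assay with luminescence read-out, IC50 derived from inhibitor dose-response curves; intracellular ROS from endogenous NOX1 in intact HT29 colon cancer cells; potency of inhibitors that lower the ROS luminescence signal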
T2 sequence (Q9Y5S8 whole entry): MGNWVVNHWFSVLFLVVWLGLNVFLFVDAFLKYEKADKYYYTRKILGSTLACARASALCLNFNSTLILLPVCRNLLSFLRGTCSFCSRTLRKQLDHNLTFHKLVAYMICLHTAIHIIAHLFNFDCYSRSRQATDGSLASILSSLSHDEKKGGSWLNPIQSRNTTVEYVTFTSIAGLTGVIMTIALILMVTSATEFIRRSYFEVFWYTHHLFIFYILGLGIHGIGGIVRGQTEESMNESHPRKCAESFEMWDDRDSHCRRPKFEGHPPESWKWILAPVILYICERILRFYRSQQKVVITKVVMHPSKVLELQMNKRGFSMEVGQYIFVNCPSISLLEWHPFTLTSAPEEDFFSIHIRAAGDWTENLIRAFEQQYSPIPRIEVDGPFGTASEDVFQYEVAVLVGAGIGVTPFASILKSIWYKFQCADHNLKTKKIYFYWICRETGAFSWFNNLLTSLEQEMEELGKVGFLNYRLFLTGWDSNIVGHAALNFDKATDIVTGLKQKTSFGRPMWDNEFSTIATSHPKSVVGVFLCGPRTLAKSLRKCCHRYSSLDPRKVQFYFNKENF

[4] = target: DNA dC->dU-editing enzyme APOBEC-3A (Homo sapiens, UniProt P31941); test: Dose Response confirmation of small molecule APOBEC3A DNA Deaminase Inhibitors via a fluorescence-based single-stranded DNA deaminase assay. [Related pubchem assays (depositor defined):AID493011, AID493024]; type: functional
[5] = target: DNA dC->dU-editing enzyme APOBEC-3G (Homo sapiens, UniProt Q9HC16); type: functional;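 further: Dose-response counterscreen measuring inhibition of APOBEC3G DNA deaminase activity, run while confirming APOBEC3A inhibitors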
[6] = target: T3, Carboxy-terminal domain RNA polymerase II polypeptide A small phosphatase 1 (Homo sapiens, UniProt Q9GZU7); test: CTDSP1 inhibitors, concentration-response, biochemical, absorbance readout, ultra-high-throughput screen actives (AID 540297); type: functional
T3 sequence (Q9GZU7 whole entry): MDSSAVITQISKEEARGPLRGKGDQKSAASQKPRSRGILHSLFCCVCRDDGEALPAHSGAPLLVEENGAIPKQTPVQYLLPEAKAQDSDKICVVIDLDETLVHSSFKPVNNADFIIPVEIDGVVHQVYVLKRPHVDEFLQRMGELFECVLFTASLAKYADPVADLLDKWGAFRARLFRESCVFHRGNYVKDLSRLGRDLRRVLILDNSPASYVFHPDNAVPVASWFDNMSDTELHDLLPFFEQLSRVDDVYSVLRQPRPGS

Caspase-6 = target: T4, Caspase-6 (Homo sapiens, UniProt P55212); test: inhibition of CASP6 peptide cleavage – biochemical, VEID-R110 fluorescence, cherry-pick, dose response (AID 720632)
T4 sequence (P55212 whole entry): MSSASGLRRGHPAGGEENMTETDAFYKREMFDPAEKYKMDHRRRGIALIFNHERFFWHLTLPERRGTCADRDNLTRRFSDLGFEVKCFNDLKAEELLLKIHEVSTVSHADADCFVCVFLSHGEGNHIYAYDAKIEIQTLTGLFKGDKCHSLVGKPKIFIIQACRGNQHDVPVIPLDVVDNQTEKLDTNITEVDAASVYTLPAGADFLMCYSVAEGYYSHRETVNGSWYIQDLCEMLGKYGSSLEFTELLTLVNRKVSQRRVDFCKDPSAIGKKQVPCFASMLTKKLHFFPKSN

Cytochrome P450 2C19 = Cytochrome P450 2C19 (Homo sapiens, UniProt P33261); test: qHTS Assay for Inhibitors and Substrates of Cytochrome P450 2C19. [Related pubchem assays: 410 ]; type: ADME; details: read-out: Potency
[7] = target: T5, Alkaline phosphatase, tissue-nonspecific isozyme (Homo sapiens, UniProt P05186)
T5 sequence (P05186 whole entry): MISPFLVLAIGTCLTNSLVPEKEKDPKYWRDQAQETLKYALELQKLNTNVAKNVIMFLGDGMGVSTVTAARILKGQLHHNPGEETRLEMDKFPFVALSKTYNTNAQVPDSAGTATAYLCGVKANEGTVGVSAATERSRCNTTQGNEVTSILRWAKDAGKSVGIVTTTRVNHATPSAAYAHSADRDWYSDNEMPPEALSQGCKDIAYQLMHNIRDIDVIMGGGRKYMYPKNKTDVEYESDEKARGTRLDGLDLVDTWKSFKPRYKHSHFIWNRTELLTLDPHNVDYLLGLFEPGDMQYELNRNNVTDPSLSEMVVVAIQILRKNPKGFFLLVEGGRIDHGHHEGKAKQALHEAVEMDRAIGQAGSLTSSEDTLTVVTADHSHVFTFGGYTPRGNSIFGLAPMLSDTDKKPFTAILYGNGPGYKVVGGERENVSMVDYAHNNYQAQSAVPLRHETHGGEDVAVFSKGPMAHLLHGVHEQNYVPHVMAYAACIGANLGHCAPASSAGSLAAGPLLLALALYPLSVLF

[8] = microbe, parasite or virus in culture; type: functional; details: Mycobacterium tuberculosis
cells = type: functional
[9] = A Cell Based Secondary Assay To Explore Cytotoxicity of Compounds that Sensitize Mycobacterium Tuberculosis to Beta-Lactam Antibiotics.; type: functional
Mucolipin-3 = target: T6, Mucolipin-3 (Homo sapiens, UniProt Q8TDD5); test: Dose response cell-based high-throughput screening assay for agonists of the transient receptor potential channel ML3 (TRPML3). [Related pubchem assays: 1526, 1424, 1448 ]; type: functional
T6 sequence (Q8TDD5 whole entry): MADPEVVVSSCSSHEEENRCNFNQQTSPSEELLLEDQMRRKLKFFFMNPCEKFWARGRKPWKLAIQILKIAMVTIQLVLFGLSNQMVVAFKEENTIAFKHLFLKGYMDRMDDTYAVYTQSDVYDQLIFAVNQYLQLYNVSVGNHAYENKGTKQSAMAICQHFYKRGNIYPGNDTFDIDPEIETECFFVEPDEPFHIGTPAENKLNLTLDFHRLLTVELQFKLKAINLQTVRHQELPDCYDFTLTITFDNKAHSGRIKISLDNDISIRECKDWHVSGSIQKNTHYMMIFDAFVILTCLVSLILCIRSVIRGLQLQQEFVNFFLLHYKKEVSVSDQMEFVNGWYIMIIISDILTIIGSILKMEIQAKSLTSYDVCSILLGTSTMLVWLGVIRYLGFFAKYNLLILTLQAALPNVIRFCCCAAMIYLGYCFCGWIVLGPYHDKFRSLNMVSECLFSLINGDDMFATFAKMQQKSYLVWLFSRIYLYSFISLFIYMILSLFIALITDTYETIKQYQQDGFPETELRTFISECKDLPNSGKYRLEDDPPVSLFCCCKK

Ion channel NompC = Ion channel NompC (Danio rerio, UniProt Q7T1G6); test: Fluorescence counterscreen assay for TRPML3 agonists: dose response cell-based high-throughput screening assay to identify agonists of the transient receptor potential channel N1 (TRPN1). [Related pubchem assays: 1526, 1424, 1448 ]; type: functional
[10] = loss of viability in HepG2 cells – cell-based, CellTiter-Glo, cherry-picked, cytotoxicity control for Shn3 inhibitor project, dose response (AID 624134); type: functional
[11] = non-specific 3'UTR reporter inhibition in Clone20-Shn3RL – cell-based, Renilla luciferase, cherry-picked, counter-screen for Shn3 inhibitor project, dose response (AID 624133); type: functional

Chain of DNA dC->dU-editing enzyme APOBEC-3A (P31941 whole entry): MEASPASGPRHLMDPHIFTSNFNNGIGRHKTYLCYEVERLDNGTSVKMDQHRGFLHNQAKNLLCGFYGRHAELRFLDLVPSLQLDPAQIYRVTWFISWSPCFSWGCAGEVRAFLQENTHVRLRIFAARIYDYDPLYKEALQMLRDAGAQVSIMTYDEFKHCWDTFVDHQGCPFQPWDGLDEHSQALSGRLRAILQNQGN
Chain of DNA dC->dU-editing enzyme APOBEC-3G (Q9HC16 whole entry, the tested form may be a part): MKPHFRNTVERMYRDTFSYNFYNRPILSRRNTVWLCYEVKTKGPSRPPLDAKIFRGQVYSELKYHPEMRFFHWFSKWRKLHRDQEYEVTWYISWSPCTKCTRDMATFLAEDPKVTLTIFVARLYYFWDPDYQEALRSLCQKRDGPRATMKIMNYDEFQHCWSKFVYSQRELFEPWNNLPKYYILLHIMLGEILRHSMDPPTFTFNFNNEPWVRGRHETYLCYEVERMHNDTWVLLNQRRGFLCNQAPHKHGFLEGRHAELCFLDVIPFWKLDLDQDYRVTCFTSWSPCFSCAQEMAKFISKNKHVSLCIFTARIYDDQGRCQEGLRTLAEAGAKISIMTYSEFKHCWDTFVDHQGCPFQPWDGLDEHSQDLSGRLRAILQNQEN
Chain of Cytochrome P450 2C19 (P33261 whole entry): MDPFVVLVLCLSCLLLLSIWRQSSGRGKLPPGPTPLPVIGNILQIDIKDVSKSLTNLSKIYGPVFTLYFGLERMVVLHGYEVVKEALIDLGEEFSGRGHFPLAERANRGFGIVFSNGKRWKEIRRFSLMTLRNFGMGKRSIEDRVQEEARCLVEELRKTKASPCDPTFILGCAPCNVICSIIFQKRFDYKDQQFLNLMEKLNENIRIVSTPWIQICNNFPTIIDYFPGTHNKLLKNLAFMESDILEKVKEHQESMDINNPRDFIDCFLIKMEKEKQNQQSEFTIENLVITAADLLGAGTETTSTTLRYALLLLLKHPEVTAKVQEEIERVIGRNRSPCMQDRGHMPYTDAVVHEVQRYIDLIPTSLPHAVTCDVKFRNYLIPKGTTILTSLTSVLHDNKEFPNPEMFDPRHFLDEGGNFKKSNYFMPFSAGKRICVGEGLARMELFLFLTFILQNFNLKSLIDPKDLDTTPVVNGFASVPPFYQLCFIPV
Chain of Ion channel NompC (Q7T1G6 whole entry): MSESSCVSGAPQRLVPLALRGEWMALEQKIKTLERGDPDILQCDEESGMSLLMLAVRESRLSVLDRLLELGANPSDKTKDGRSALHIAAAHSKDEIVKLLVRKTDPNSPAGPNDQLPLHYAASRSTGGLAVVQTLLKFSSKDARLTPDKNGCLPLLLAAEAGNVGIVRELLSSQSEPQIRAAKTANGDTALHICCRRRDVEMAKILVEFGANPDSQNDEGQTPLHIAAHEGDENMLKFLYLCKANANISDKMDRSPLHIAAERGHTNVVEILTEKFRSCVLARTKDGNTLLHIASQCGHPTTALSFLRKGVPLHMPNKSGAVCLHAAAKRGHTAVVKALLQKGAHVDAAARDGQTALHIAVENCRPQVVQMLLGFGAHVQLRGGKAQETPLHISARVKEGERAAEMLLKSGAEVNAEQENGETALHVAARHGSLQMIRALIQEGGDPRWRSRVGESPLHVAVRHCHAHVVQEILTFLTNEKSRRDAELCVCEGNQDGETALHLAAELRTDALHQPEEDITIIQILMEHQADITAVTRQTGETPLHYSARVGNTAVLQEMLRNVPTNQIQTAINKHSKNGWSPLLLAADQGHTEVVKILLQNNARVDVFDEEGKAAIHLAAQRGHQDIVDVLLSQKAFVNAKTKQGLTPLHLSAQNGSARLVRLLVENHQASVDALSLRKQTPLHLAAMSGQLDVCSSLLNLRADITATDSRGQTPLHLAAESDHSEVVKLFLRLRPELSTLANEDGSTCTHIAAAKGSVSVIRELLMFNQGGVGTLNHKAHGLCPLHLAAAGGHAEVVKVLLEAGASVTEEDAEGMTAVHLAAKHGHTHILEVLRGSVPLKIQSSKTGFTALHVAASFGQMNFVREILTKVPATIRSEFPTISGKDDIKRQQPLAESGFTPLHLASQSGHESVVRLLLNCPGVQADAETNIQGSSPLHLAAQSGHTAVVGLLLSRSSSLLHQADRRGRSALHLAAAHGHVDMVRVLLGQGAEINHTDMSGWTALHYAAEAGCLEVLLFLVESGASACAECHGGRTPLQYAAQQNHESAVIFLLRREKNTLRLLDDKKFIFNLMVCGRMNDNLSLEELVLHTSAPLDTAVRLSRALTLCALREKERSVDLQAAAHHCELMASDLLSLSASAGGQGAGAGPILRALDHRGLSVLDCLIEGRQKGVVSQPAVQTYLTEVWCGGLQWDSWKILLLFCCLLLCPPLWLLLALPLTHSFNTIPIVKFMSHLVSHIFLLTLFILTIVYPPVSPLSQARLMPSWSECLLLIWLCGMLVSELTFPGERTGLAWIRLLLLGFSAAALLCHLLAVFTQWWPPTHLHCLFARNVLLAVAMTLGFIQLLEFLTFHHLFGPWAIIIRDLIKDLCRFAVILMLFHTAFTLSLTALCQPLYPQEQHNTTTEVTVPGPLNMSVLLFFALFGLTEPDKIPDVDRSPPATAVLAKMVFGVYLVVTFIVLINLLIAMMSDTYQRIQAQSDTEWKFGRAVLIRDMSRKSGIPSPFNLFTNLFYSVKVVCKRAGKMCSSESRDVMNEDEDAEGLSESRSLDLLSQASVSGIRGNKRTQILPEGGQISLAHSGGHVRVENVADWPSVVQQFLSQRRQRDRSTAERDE

Compound: CC(=O)N1CCN(S(=O)(=O)c2cccc(C(=O)Nc3ccc4c(c3)OCO4)c2)CC1
- AC50 [1]: 25.1 µM (active)

Compound: O=C(Cc1ncon1)Nc1ccc(F)c(F)c1F
- EC50 [2]: > 55.7 µM (not active)
- EC50 [3]: > 55.7 µM (not active)

Compound: CCN(CC(=O)NCc1ccc(Cl)cc1)C(=O)CSCC(=O)Nc1ccc(C)cc1
- AC50 [1]: 5.23 µM (active)

Compound: CSc1ccc2c(c1)Nc1ccccc1S2
- IC50 (NADPH oxidase 1): 0.241 µM (active)

Compound: O=P(c1ccccc1)(c1ccccc1)c1cc(S(=O)(=O)O)ccc1O
- IC50 [4]: 14.3 µM (active)
- IC50 [5]: 45 µM (active)
- IC50 [6]: 9.24 µM (active)
- AC50 (Caspase-6): 1.78 µM (active)

Compound: COC(=O)NC(c1ccccc1)C(C#N)C(=O)OC (stereo not given)
- AC50 (Cytochrome P450 2C19): 3.16 µM (inconclusive)

Compound: CCCCN1C(=O)C2(NNc3ccccc3O2)c2ccccc21 (stereo not given)
- EC50 [7]: < 0.195 µM (not active)
- CC50 [8]: > 40 µM (active)
- IC50 (cells): 36.5 µM (active)

Compound: CSc1ncc(Cl)c(C(=O)Nc2cccc3ccccc23)n1
- CC50 [9]: > 40 µM (active)

Compound: CC(C)(C)NS(=O)(=O)c1cccc2nsnc12
- EC50 [2]: > 55.7 µM (not active)
- EC50 [3]: > 55.7 µM (not active)

Compound: CCOC(=O)C1CCN(C(=O)C(C)N(c2ccc(Oc3ccccc3)cc2)S(C)(=O)=O)CC1 (stereo not given)
- EC50 (Mucolipin-3): 6.8 µM (active)
- EC50 (Ion channel NompC): > 29.9 µM (not active)
- AC50 [10]: > 70 µM (inactive)
- AC50 [11]: 9.34 µM (active)
